Assay in all cases: biochemical
What all share (set-up): KINOMEscan active site-directed competition binding assay (DiscoveRx), 456 kinases, per cent of control at 300 nM
What all share (settings): read-out: Percent of Control (%)

The target of one assay is LYN (Homo sapiens, UniProt P07948). Summed up: (§1)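 Single-concentration selectivity screen: compound 300 nmol/L; 456-kinase panel; active-site-directed competition binding read-out.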
The target in another assay is PRKD3 (Homo sapiens, UniProt O94806). Summed up:
as §1

For another assay, the target named is PAK1 (Homo sapiens, UniProt Q13153). Summed up: as §1
Another assay deals with T1, DRAK2 (Homo sapiens, UniProt O94768).
T1 construct: gene STK17B
T1 sequence (O94768 whole entry): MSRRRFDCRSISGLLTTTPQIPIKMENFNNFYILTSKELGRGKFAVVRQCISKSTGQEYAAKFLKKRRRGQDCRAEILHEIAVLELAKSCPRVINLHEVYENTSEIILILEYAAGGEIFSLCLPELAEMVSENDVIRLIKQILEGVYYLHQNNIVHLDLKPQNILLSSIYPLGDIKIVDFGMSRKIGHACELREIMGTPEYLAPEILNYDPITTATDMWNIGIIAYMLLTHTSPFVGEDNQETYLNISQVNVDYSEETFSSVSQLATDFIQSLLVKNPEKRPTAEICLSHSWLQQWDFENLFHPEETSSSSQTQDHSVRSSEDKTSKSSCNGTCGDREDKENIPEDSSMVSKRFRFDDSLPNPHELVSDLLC
In a few lines:
as §1

A further assay has as its target ULK1 (Homo sapiens, UniProt O75385). In a few lines:
as §1

In assay [1] the target is T2, RPS6KA5(Kin.Dom.1-N-terminal) (Homo sapiens, UniProt O75582).
T2 construct: Kin.Dom.1-N-terminal
T2 sequence (O75582 whole entry): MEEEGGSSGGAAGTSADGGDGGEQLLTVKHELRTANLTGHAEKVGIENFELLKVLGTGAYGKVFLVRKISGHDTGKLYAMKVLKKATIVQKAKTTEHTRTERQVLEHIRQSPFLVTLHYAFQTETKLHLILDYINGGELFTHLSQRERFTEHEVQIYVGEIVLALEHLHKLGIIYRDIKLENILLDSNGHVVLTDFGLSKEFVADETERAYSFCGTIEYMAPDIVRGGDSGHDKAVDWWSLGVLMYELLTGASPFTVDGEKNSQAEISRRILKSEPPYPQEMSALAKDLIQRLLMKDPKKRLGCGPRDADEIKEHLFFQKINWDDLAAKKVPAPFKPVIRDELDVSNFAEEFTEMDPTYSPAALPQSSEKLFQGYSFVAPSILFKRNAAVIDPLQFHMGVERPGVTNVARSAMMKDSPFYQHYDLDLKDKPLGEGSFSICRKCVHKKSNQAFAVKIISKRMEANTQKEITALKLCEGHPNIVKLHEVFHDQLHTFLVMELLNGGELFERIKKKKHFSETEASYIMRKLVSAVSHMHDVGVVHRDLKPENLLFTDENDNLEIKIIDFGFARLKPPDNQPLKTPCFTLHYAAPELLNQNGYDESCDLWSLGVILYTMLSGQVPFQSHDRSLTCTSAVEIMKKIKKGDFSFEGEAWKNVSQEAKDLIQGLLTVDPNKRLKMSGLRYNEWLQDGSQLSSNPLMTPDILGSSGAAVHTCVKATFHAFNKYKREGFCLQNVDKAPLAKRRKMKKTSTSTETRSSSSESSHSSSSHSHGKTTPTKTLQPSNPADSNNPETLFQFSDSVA
In a few lines: as §1

For another assay, the target named is NEK9 (Homo sapiens, UniProt Q8TD19). Summed up: as §1
The next assay deals with T3, ERK1 (Homo sapiens, UniProt P27361).
T3 construct: gene MAPK3
In a few lines: as §1

A further assay deals with FLT3(D835Y) (Homo sapiens, UniProt P36888, D835Y). In a few lines: as §1
The next assay deals with T4, DMPK2 (Homo sapiens, UniProt Q6DT37).
T4 construct: gene CDC42BPG
T4 sequence (Q6DT37 whole entry): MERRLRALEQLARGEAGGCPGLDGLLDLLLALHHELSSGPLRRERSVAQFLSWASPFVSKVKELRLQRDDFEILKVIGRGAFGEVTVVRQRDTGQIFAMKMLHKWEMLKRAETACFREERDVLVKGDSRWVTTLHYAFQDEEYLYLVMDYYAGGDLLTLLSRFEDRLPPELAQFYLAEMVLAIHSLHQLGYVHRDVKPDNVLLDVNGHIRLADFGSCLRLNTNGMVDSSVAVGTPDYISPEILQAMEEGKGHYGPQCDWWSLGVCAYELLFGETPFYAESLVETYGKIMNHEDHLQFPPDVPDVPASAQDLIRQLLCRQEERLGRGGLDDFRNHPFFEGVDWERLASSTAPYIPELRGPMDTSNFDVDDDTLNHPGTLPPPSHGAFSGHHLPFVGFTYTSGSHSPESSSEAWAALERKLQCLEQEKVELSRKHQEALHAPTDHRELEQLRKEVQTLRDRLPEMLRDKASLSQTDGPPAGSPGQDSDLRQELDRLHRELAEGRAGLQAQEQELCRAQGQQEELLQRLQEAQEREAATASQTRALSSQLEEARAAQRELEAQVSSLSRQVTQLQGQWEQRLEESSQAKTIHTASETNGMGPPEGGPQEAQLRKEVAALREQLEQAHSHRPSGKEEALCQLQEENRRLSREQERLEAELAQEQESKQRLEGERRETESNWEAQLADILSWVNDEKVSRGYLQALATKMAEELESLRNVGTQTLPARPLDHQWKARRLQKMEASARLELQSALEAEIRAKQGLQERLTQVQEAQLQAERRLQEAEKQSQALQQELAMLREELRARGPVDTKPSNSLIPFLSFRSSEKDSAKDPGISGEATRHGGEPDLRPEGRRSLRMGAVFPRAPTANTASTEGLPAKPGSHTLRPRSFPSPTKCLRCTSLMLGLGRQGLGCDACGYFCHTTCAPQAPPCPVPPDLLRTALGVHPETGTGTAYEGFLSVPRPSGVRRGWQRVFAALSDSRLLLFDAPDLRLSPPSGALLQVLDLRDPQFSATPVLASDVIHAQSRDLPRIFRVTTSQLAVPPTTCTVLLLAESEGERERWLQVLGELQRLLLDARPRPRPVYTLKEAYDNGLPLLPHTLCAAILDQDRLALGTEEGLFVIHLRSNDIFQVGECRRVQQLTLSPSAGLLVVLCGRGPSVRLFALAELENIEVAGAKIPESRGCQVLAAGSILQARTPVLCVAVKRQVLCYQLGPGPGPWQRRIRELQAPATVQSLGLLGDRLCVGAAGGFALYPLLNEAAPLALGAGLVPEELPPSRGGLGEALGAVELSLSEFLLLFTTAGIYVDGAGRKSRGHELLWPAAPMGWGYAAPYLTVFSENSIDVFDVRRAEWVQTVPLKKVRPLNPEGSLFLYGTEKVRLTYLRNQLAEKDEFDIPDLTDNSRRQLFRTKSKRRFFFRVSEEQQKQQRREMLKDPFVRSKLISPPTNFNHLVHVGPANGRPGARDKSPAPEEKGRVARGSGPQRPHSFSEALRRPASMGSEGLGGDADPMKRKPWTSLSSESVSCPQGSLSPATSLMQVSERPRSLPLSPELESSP
Summed up: as §1

Assay [2] deals with T5, ABL1(T315I)-phosphorylated (Homo sapiens, UniProt P00519, T315I).
T5 construct: phosphorylated
Summed up:
as §1

Assay [3] deals with T6, ABL1(F317I)-nonphosphorylated (Homo sapiens, UniProt P00519, F317I).
T6 construct: nonphosphorylated
Summed up:
as §1

The next assay concerns the target TYRO3 (Homo sapiens, UniProt Q06418). In a few lines: as §1
Another assay addresses PIK3C2B (Homo sapiens, UniProt O00750). In a few lines:
as §1

In a further assay the target is KIT(V559D) (Homo sapiens, UniProt P10721, V559D). Summed up: as §1
In the next assay the target is PDGFRA (Homo sapiens, UniProt P16234). In a few lines: as §1
PDGFRA, sequence (P16234 whole entry): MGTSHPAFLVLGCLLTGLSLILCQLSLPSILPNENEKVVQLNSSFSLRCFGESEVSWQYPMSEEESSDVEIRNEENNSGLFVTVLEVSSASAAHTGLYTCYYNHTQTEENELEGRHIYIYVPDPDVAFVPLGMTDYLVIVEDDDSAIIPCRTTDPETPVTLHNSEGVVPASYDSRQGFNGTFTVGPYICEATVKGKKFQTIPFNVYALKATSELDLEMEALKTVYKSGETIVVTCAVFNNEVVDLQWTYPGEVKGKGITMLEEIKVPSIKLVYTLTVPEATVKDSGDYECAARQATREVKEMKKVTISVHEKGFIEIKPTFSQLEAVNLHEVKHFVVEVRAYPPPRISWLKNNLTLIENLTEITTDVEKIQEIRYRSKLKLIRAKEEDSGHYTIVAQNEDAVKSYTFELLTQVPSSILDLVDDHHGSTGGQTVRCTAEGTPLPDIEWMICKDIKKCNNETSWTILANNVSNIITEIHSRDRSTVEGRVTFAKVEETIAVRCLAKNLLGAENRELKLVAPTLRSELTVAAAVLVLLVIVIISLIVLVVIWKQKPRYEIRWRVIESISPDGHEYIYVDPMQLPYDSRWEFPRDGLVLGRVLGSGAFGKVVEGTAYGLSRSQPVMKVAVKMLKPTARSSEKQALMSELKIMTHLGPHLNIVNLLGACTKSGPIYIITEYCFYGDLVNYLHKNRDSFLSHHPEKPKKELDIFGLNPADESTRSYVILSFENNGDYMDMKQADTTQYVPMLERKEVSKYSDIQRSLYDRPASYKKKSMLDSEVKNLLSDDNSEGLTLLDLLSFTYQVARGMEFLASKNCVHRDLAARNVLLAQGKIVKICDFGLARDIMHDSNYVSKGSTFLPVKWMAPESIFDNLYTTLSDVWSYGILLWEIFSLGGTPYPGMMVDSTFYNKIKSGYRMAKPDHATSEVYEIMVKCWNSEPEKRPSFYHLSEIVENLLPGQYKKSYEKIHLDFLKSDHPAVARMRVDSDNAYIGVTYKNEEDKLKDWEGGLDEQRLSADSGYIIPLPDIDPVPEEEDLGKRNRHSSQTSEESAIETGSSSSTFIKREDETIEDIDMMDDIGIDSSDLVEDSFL
The target of a further assay is CAMK1D (Homo sapiens, UniProt Q8IU85). Summed up:
as §1

In another assay the target is T7, DCAMKL2 (Homo sapiens, UniProt Q8N568).
T7 construct: gene DCLK2
Summed up:
as §1

Another assay concerns the target CAMK1 (Homo sapiens, UniProt Q14012). Summed up: as §1
Assay [4] has as its target T8, ABL1(F317L)-nonphosphorylated (Homo sapiens, UniProt P00519, F317L).
T8 construct: nonphosphorylated
Summed up:
as §1

The target in a further assay is T9, PFTK1 (Homo sapiens, UniProt O94921).
T9 construct: gene CDK14
In a few lines: as §1

Read-outs that look alike come from different tables or passages of the source.

LYN, sequence (P07948 whole entry): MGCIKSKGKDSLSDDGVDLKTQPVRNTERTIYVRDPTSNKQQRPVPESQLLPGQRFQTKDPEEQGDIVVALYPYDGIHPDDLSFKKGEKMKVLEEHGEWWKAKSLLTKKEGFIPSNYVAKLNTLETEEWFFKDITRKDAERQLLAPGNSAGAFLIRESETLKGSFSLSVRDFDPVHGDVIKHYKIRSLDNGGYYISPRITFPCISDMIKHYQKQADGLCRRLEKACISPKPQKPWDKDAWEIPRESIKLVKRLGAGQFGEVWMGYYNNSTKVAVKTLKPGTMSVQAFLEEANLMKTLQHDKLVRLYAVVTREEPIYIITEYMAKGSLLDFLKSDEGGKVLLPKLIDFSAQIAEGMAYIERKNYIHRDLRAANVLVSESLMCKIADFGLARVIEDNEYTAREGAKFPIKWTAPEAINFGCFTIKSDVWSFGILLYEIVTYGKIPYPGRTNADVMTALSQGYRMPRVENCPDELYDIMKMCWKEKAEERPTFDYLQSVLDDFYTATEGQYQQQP
CAMK1D, sequence (Q8IU85 whole entry): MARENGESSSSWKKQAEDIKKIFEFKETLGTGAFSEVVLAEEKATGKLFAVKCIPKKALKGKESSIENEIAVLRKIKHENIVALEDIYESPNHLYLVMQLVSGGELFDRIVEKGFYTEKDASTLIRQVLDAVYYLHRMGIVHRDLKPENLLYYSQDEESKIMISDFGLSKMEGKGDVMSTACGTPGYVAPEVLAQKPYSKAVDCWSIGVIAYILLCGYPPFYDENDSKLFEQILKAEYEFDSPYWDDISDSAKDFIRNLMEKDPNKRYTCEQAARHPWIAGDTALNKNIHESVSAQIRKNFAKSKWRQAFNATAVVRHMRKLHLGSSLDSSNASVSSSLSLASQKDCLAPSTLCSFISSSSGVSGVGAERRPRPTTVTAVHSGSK

With `Cc1ncccc1Oc1sc(C(N)=O)c2c1-c1c(cnn1C)CC2` [T-474, 1-methyl-8-((2-methylpyridin-3-yl)oxy)-4,5-dihydro-1H-thieno[3,4-g]indazole-6-carboxamide], the remaining binding at 0.3 µM on LYN came to 100%; at PRKD3, 100%; on PAK1, 94%; at DRAK2 it was 100%; at ULK1, 43%; in [1], 100%. For the same compound, the remaining binding at 0.3 µM at NEK9 is 100%; on ERK1, 100%; at FLT3(D835Y), 60%; at DMPK2 it was 87%; in assay [2], 100%; in [3] it was 100%. In addition, the remaining binding at 0.3 µM on TYRO3 amounted to 95%; on PIK3C2B, 86%; at KIT(V559D), 100%; at PDGFRA, 96%; at CAMK1D, 79%; at DCAMKL2 it was 100%. In addition, the figures for the remaining binding at 0.3 µM (on CAMK1; in assay [4]; on PFTK1) were 66%, 100% and 100%, respectively.

For `O=C(/C=C/c1cnccc1-c1ccc(F)cc1)Nc1ccc(CCc2nnco2)cc1` [T-418, (2E)-3-(4-(4-fluorophenyl)pyridin-3-yl)-N-(4-(2-(1,3,4-oxadiazol-2-yl)ethyl)phenyl)acrylamide], the remaining binding at 0.3 µM on LYN (sheet T-418) worked out at 100%; at PRKD3 (sheet T-418), 100%; on PAK1 (sheet T-418), 76%; on DRAK2 (sheet T-418), 94%; on ULK1 (sheet T-418), 41%; in [1] (sheet T-418), 80%. Besides, the remaining binding at 0.3 µM on NEK9 (sheet T-418) came out at 100%; at ERK1 (sheet T-418) it was 94%; on FLT3(D835Y) (sheet T-418), 100%; at DMPK2 (sheet T-418), 71%; in assay [2] (sheet T-418) it was 100%; in [3] (sheet T-418) it was 100%. The remaining binding at 0.3 µM on TYRO3 (sheet T-418) turned out to be 82%; at PIK3C2B (sheet T-418) it was 88%; on KIT(V559D) (sheet T-418) it was 100%; on PDGFRA (sheet T-418), 97%; on CAMK1D (sheet T-418) it was 94%; on DCAMKL2 (sheet T-418), 100%. Besides, the remaining binding at 0.3 µM at CAMK1 (sheet T-418) was determined as 70%; in assay [4] (sheet T-418), 100%; on PFTK1 (sheet T-418), 87%.

The values are drawn from PMC5862592, “CDK8/19 inhibition induces premature G1/S transition and ATR-dependent cell death in prostate cancer cells” (Oncotarget, 2018).
